Test results published in patent publication US20110229580A1, “COMPOSITIONS AND METHODS FOR NANO-IN-MICRO PARTICLES” (Indian Institute of Technology Bombay, School of …, priority 2010, published 2011).

Test: Confocal laser scanning microscopy of dye retention in CaCO3 nanoparticles
Type: physicochemical
Conditions: CLSM
Text: Fluorescent images of FITC-dex (70 kDa) loaded CaCO3 nanoparticles were examined using confocal microscopy. Confocal micrographs of micro/nanoparticles were obtained with a flow view confocal laser scanning microscope (CLSM) equipped with a krypton-argon laser (Olympus FluoView™, Japan). An inverted microscope was also used which was equipped with an oil immersion objective lens (40×). The standard filter settings for fluorescence excitation (488 nm) and emission (520 nm) were used.

Question: Which “retention in CaCO3 nanoparticles” value does the source give for `O=C1OC2(c3ccc(O)cc3Oc3cc(O)ccc32)c2ccc(N=C=S)cc21` [FITC dye] here?
Answer: not retained
